pKd: −log10 of the molar value. A value given as a limit tells only on which side of the number the result lay.

The test concerns the target T1, gp120 (Human immunodeficiency virus type 1 group M subtype B, UniProt P03375).
T1 construct: loaded with 25 μl of 6 mg/ml of gp120 (25 μM) in PBS pH 7.2
The experiment in a line: biochemical. It is filed as binding, HIV. The protocol:
If needed, experiments were repeated within a smaller concentration range (i.e., 10 trials from 0.01 to 0.10 mmol). A total volume of either 50 μl was used in each analysis. Analytes were loaded in the opposite side of the membrane and equilibrium was obtained after incubation of 12 hrs at 23° C. The association constants were determined by non-linear regression analysis. Concentrations of compounds analysed were determined by HPLC analysis by comparison against an internal control (diethyl-7-dimethylaminocoumarineacetamide). HPLC controls were run with an equimolar amount of control and analyte. The relative concentrations of each analyte were determined at both sides of the membrane. […] Each data point was recollected after regeneration of the dialysis setup by exposing the non-protein containing face of the membrane to 5 ml of PBS pH 7.2 twice for 4 to 10 hrs at 23° C.
The pKd is the negative decadic logarithm of the Kd, by convention in mol/L. Lower therefore signals a high Kd. On to `O=C(O[C@@H]1O[C@@H]2COC(=O)c3cc(O)c(O)c(O)c3-c3c(cc(O)c(O)c3O)C(=O)O[C@H]([C@H]1O)[C@@H]2O)c1cc(O)c(O)c(O)c1` [Corilagin], for which the negative logarithm of the Kd (pKd) was 6.92.

For the compound `O=C(O)c1cc(O)c(O)c(O)c1` [Gallic acid], the negative logarithm of the Kd (pKd) was at most 4.00.

Take `O=C1O[C@H]2[C@@H]3OC(=O)c4cc(O)c(O)c(O)c4-c4c(cc(O)c(O)c4O)C(=O)OC[C@H]2O[C@@H](OC(=O)c2cc(O)c(O)c(O)c2)[C@@H]3OC(=O)c2cc(O)c(O)c3c2[C@@H]2C1=CC(=O)[C@](O)(O3)C2(O)O` [Geraniin]: the negative-log Kd (pKd) was 7.12.

In turn, `Cc1c(O)c(O)cc2c1C(/C(=C/C(=O)O)C(=O)OC1C3COC(=O)c4cc(O)c(O)c(O)c4-c4c(cc(O)c(O)c4O)C(=O)OC1C(O)C(OC(=O)c1cc(O)c(O)c(O)c1)O3)C(C(=O)O)OC2=O` (stereo not shown) [Repandusinic acid] had a pKd of 7.66.

For the origin of these results see US8366935B2, “Phyllanthus extract” (Phytrix Inc., priority 2008, dated 2013).
